In patent US7439027B2, “Method for modulating process mediated by farnesoid activated receptors” (The Salk Institute for Biological Studies, priority 1995, dated 2008):

How the values were obtained:
[1] = biological target: T1, FAR-RXRα complex (rat FAR and human RXRα) (Rattus norvegicus, UniProt Q62735, D356M/DEL339-355/E357R/INS337LPDTQTCWKKEFERAAS); test: hsp27-EcRE×5 MTV-luciferase reporter cotransfection in CV-1 cells expressing FAR and RXRα; assay type: cell-based; settings: for activation of FAR-RXRα complex, hsp27 EcRE reporter: FIG. 5C
T1 construct: expressed in transfected cells; host or cells: CV-1 cells, CMV-driven expression vectors
T1 sequence (Q62735 1-469): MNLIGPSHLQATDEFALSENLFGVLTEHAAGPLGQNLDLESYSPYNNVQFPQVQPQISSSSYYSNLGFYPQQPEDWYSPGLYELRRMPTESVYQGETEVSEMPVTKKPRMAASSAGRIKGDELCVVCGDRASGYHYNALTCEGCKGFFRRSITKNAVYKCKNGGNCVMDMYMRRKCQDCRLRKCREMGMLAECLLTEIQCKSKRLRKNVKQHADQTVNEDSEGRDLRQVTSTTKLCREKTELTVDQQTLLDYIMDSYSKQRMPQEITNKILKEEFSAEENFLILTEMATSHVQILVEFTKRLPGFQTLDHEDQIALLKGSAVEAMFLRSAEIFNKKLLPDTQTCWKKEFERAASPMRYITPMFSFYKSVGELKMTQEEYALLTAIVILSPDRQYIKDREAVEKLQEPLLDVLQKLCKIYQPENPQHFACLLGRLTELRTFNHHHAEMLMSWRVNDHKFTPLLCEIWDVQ
T1 sequence (P19793 1-462 partner): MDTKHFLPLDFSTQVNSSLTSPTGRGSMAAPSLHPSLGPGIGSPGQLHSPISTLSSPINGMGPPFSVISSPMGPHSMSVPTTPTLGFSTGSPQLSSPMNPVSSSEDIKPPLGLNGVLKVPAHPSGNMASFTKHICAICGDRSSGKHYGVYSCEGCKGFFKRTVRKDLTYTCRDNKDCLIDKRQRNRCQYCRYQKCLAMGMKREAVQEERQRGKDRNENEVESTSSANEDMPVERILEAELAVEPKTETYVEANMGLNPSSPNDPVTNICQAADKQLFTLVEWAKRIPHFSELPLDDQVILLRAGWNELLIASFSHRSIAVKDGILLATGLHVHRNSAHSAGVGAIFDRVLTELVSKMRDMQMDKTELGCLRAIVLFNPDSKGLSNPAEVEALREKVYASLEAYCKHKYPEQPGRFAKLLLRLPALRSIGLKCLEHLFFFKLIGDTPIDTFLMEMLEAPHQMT
Method: Thus, CV-1 cells were grown in DMEM supplemented with 10% AG1-X8 resin-charcoal stripped calf bovine serum, 50 U/ml penicillin G and 50 μg/ml streptomycin sulfate (DMEM-CBS) at 37° C. in 5% CO2. One day prior to transfection, cells were plated to 50-80% confluence using phenol-red free DMEM with 10% resin charcoal stripped fetal bovine serum (DMEM-FBS). Cells were transfected (with reporter construct (300 ng/10^5 cells), cytomegalovirus driven receptor (100 ng/10^5 cells) and β-galactosidase expression vectors (500 ng/10^5 cells) as indicated in FIG. 4) by lipofection using N-{2-(2,3)-dioleoyloxy)propyl-N,N,N-trimethyl ammonium methyl sulfate} according to the manufacturer's instructions (DOTAP, Boehringer Mannheim). […] Cells were harvested and assayed for luciferase and β-galactosidase activity. […] Data points were normalized for differences in transfection efficiency using β-galactosidase, and plotted as relative activity where the untreated reporter is defined to have an activity of 1 unit.
(§1) Based on the identification of an EcRE as a DNA target, a reporter plasmid was constructed containing 5 copies of the hsp27 response element linked to a truncated mouse mammary tumor virus promoter (Yao et al., Nature 366:476-479 (1993)). This reporter was cotransfected into CV-1 cells alone, or with expression vectors for FAR and/or RXRα. Cotransfected cells were treated with a variety of potential ligands and monitored for changes in luciferase activity.
Thus, with reference to FIG. 5A, CV-1 cells were transiently transfected with hsp27-EcRE×5 MTV-luciferase alone (−) or with expression vectors for rat FAR and/or human RXRα. Reporter activity was assayed after treating cells with or without 50 μM JH III.
CV-1 cells were transiently transfected as described above with reference to FIG. 5A, but treated with or without 50 μM JH III, 100 nM LG69 and JH III+LG69.
Thus, CV-1 cells were transiently transfected with expression vectors for rat FR and human RXRα, as described above in Example 3. […] Data is plotted in FIG. 6A as fold activation relative to untreated cells.

[2] = biological target: T2, rat FAR (Rattus norvegicus, UniProt Q62735, D356M/DEL339-355/E357R/INS337LPDTQTCWKKEFERAAS); test: hsp27-EcRE×5 MTV-luciferase reporter in CV-1 cells expressing FAR alone; assay type: cell-based; settings: 50 μM JH III; FIG. 5A
T2 construct: expressed in transfected cells; host or cells: CV-1 cells, CMV-driven expression vector
T2 sequence (Q62735 1-469 INS337LPDTQTCWKKEFERAAS/DEL339-355/D356M/E357R): T1 sequence (Q62735 1-469)
Method: Thus, CV-1 cells were grown in DMEM supplemented with 10% AG1-X8 resin-charcoal stripped calf bovine serum, 50 U/ml penicillin G and 50 μg/ml streptomycin sulfate (DMEM-CBS) at 37° C. in 5% CO2. One day prior to transfection, cells were plated to 50-80% confluence using phenol-red free DMEM with 10% resin charcoal stripped fetal bovine serum (DMEM-FBS). Cells were transfected (with reporter construct (300 ng/10^5 cells), cytomegalovirus driven receptor (100 ng/10^5 cells) and β-galactosidase expression vectors (500 ng/10^5 cells) as indicated in FIG. 4) by lipofection using N-{2-(2,3)-dioleoyloxy)propyl-N,N,N-trimethyl ammonium methyl sulfate} according to the manufacturer's instructions (DOTAP, Boehringer Mannheim). […] Cells were harvested and assayed for luciferase and β-galactosidase activity. All points were performed in triplicate and varied by less than 10%. Experiments were repeated three or more time with similar results. […]
as §1, with “This reporter was cotransfected into CV-1 cells alone, or with expression vectors for FAR and/or RXRα.” left out, “activity. […]” for “activity.”

[3] = biological target: T3, human RXRα (Homo sapiens, UniProt P19793); test: luciferase reporter in CV-1 cells expressing RXRα alone (hsp27-EcRE×5 MTV; CRBPII-TK); assay type: cell-based; settings: 50 μM JH III; FIGS. 5A and 5B
T3 construct: expressed in transfected cells; host or cells: CV-1 cells, CMV-driven expression vector
T3 sequence (P19793 1-462): T1 sequence (P19793 1-462 partner)
Method: (§2) Thus, CV-1 cells were grown in DMEM supplemented with 10% AG1-X8 resin-charcoal stripped calf bovine serum, 50 U/ml penicillin G and 50 μg/ml streptomycin sulfate (DMEM-CBS) at 37° C. in 5% CO2. One day prior to transfection, cells were plated to 50-80% confluence using phenol-red free DMEM with 10% resin charcoal stripped fetal bovine serum (DMEM-FBS). Cells were transfected (with reporter construct (300 ng/10^5 cells), cytomegalovirus driven receptor (100 ng/10^5 cells) and β-galactosidase expression vectors (500 ng/10^5 cells) as indicated in FIG. 4) by lipofection using N-{2-(2,3)-dioleoyloxy)propyl-N,N,N-trimethyl ammonium methyl sulfate} according to the manufacturer's instructions (DOTAP, Boehringer Mannheim). […] Cells were harvested and assayed for luciferase and β-galactosidase activity. All points were performed in triplicate and varied by less than 10%. Experiments were repeated three or more time with similar results. Data points were normalized for differences in transfection efficiency using β-galactosidase, and plotted as relative activity where the untreated reporter is defined to have an activity of 1 unit.
Thus, with reference to FIG. 5A, CV-1 cells were transiently transfected with hsp27-EcRE×5 MTV-luciferase alone (−) or with expression vectors for rat FAR and/or human RXRα. Reporter activity was assayed after treating cells with or without 50 μM JH III. […]

[4] = biological target: T1, FAR-RXRα complex (rat FAR and human RXRα); test: hsp27-EcRE×5 MTV-luciferase reporter cotransfection in CV-1 cells expressing FAR and RXRα; assay type: cell-based; settings: JH III; parental MTV reporter without EcREs
[5] = biological target: T4, human RARα (Homo sapiens, UniProt P10276); test: RARα / DR5×2-TK luciferase reporter; assay type: cell-based; settings: 50 μM JH III; FIG. 5B
T4 construct: expressed in transfected cells
T4 sequence (P10276 1-462): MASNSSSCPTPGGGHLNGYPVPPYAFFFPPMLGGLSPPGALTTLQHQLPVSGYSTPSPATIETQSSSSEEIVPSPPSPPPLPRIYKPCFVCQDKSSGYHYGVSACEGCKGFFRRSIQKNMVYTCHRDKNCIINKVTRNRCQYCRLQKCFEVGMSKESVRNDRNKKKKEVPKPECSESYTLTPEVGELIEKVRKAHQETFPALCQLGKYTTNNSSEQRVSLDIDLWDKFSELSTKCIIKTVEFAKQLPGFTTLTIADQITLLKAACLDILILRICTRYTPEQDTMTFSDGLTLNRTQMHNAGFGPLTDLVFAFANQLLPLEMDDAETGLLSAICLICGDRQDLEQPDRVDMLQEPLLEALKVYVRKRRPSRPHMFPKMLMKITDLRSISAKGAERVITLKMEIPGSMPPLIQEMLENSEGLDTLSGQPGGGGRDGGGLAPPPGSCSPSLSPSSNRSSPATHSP
Method: as §2, with “unit. […]” for “unit.”

[6] = test system: Drosophila G-EcR+USP; test: G-EcR+USP / hsp27-EcRE×5 MTV luciferase reporter; assay type: cell-based; settings: 50 μM JH III; FIG. 5B
Method: as §2, with “unit. […]” for “unit.”

[7] = test system: ornithine decarboxylase; settings: 100 μM; bovine lymphocytes; cited from earlier work
[8] = biological target: T5, human T3Rβ (Homo sapiens, UniProt P10828); test: T3Rβ / TREp×2-TK luciferase reporter; assay type: cell-based; settings: 50 μM JH III; FIG. 5B
T5 construct: expressed in transfected cells
T5 sequence (P10828 1-461): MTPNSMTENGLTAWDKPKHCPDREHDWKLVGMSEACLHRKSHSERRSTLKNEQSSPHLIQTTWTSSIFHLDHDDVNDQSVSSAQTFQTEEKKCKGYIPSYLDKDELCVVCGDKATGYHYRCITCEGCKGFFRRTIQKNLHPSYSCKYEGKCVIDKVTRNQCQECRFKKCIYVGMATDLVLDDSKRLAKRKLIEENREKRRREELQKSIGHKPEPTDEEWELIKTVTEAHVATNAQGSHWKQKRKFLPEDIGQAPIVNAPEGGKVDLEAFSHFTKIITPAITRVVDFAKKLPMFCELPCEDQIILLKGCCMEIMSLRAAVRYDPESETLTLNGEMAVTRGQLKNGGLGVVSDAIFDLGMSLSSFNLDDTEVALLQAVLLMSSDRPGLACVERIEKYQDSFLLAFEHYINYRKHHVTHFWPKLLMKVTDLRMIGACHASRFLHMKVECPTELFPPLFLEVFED
Method: as §2, with “unit. […]” for “unit.”

[9] = test system: HMG-CoA reductase; settings: by a mevalonate-derived non-sterol; cited from earlier work

## C[C@H](CCC1OC1(C)C)[C@H]1CC[C@H]2[C@@H]3CC=C4C[C@@H](O)CC[C@]4(C)[C@H]3CC[C@]12C (some centres unmarked) [24,25-epoxycholesterol]
[1]; 50 μM, FIG. 6A
  activation of FAR-RXRα (in words): little or no activation

## C[C@H](CCCC(C)(C)O)[C@H]1CC[C@H]2[C@@H]3CC=C4C[C@@H](O)CC[C@]4(C)[C@H]3CC[C@]12C [25-hydroxycholesterol]
[1]; 10 μM
  activation of FAR-RXRα (in words): little or no activation

## COC(=O)/C=C(\C)CC/C=C(\C)CCC1OC1(C)C (stereo not drawn) [JH III, cis-10,11-epoxy-3,7,11-trimethyl-trans-trans-2,6-dodecadienoic acid methyl ester]
[2]
  activation of FAR alone: fails to activate
[3]
  activation of RXRα alone: fails to activate
[1]; 50 μM JH III, CV-1 cells expressing both FAR and RXRα, FIG. 5A
  induction of luciferase activity: 10 fold
[1]; 50 μM JH III
  activation of FAR-RXRα complex, hsp27 EcRE reporter: 17 fold
[4]
  activation of FAR-RXR complexes using parental MTV reporter construct lacking the EcREs: failed to activate
[5]
  activation of all-trans retinoic acid receptor (RAR): failed to activate
[6]
  activation of ecdysone receptor (EcR+USP): failed to activate
[7]
  antagonism of induction of ornithine decarboxylase by phorbol esters and phytohemagglutinin: can be antagonized
[8]
  activation of thyroid hormone receptor (T3R): failed to activate

## CC=C(c1ccc(C(=O)O)cc1)c1cc2c(cc1C)C(C)(C)CCC2(C)C [LG69, (4-{1-3,5,5,8,8-pentamethyl-5,6,7,8-tetrahydro-2-napthalenyl)-1-propenyl}benzoic acid]
[1]; 100 nM LG69
  activation of FAR-RXRα complex, hsp27 EcRE reporter: 76 fold

## CC(C)=CCCC(C)=CCCC(C)=CC=O [farnesal]
[1]; 50 μM, FIG. 6A
  activation of FAR-RXRα (in words): weaker activity

## CC(C)=CCCC(C)=CCCC(C)=CC(=O)O [farnesoic acid]
[1]; 50 μM, FIG. 6A
  activation of FAR-RXRα (in words): little or no activation

## CC(C)=CCC/C(C)=C/CO [geraniol]
[1]; 50 μM, FIG. 6A
  activation of FAR-RXRα (in words): little or no activation

## CC(C)=CCC/C(C)=C/CC/C(C)=C/CC/C(C)=C/CO [geranylgeraniol]
[1]; 50 μM, FIG. 6A
  activation of FAR-RXRα (in words): weaker activity

## CC(C)=CCC[C@@H](C)[C@H]1CC[C@@]2(C)C3=C(CC[C@]12C)[C@@]1(C)CC[C@H](O)C(C)(C)[C@@H]1CC3 [lanosterol]
[1]; 50 μM, FIG. 6A
  activation of FAR-RXRα (in words): little or no activation

## CC(O)(CCO)CC(=O)O (centres unmarked) [mevalonate]
[1]; 50 μM, FIG. 6A
  activation of FAR-RXRα (in words): little or no activation
[1]; 200 μM, cells cotransfected with a mevalonate transporter protein
  activation of FAR-RXRα (in words): weak activity
[9]
  concentration added to cells at which down-regulation of HMG-CoA reductase activity occurs: > 100 µM

## CC(=O)[C@H]1CC[C@H]2[C@@H]3CC=C4C[C@@H](O)CC[C@]4(C)[C@H]3CC[C@]12C [pregnenolone]
[1]; 50 μM, FIG. 6A
  activation of FAR-RXRα (in words): little or no activation

## CC(C)=CCC/C(C)=C/CC/C(C)=C/CC/C=C(\C)CC/C=C(\C)CCC1OC1(C)C (centres unmarked) [squalene epoxide]
[1]; 50 μM, FIG. 6A
  activation of FAR-RXRα (in words): little or no activation

## CC(C)=CCC/C(C)=C/CC/C(C)=C/CC/C=C(\C)CC/C=C(\C)CCC=C(C)C [squalene]
[1]; 50 μM, FIG. 6A
  activation of FAR-RXRα (in words): little or no activation
